# Experimental data from patent publication US20220380801A1, “TRIPARTITE SYSTEMS FOR PROTEIN DIMERIZATION AND METHODS OF USE” (priority 2019, published 2022).
# Like-named read-outs stand apart in the source and are kept apart here.
# Columns and labels:
# [1] = target: HCV NS3/4A PR (S139A)/PRSIM_23 (Hepatitis C virus subtype 1a, UniProt A8DG50, A1066T/I1043Q/I1044E/L1039E/L1040E/L1047Q/S1165A, form not given); assay: Biacore 8K simeprevir titration of heterodimerisation; assay type: binding; details: read-out: EC50 of simeprevir for induction of heterodimerisation, 40 nM ‘WT’ (S139A) protease, immobilised PRSIM_23
# Procedure: The effect of simeprevir concentration on the formation of the HCV NS3/4A PR (S139A)/PRSIM binding molecule complex was also measured using the Biacore 8K. PRSIM_57 and PRSIM_23 were covalently immobilised on a CM5 chip surface, as before. Simeprevir was diluted 1:2 (0.0152-300 nM) in 10 mM Hepes pH 7.4, 150 mM NaCl, 0.05% Surfactant P20, 0.3% DMSO at a constant 40 nM HCV NS3/4A PR (S139A) concentration. The samples were flowed over the chip at 50 μl/min using multi cycle kinetics, with 240 sec association and 600 sec dissociation. Regeneration conditions were as described above. Titration curves for the induction of HCV NS3/4A PR (S139A)/PRSIM dimerization by simeprevir were generated. The response for each simeprevir concentration at 225 sec (15 sec before the end of the association) was normalized as a percentage of the response for 300 nM Simeprevir at 225 sec and plotted against the Simeprevir concentration. Each data point represents the mean of 3 independent experiments±s.e.m. The EC50 reported was calculated using nonlinear regression curve fit. The same method was used for the mutant HCV NS3/4A proteases, except simeprevir was diluted 1:2 (0.0457-900 or 0.412-8,100 nM) in 10 mM Hepes pH 7.4, 150 mM NaCl, 0.05% Surfactant P20, 0.82% DMSO at a constant 40 nM HCV NS3/4A PR (S139A) concentration and the response for each simeprevir concentration was normalized against the highest simeprevir concentration.
# [2] = tested on: HEK293 cells stably expressing the PRSIM-based kill switch; assay: Kill switch cell viability (phase contrast); assay type: cell-based, human; details: 100 nM simeprevir
# Procedure: Lentiviral particles encoding the kill switch fusion protein (SEQ ID NO: 223) or kill switch S196A mutant fusion protein (SEQ ID NO: 230) were generated using pPACKH1 HIV lentiviral packaging kit (Systems Bioscience), according to manufacturer's instructions. HEK293 cells were transduced for 24 h in the presence of 8 μg/ml polybrene after which cells were changed into fresh growth medium (DMEM+10% foetal bovine serum+1% Non-essential amino acids). 24 h later transduced cells were selected by addition of 2 μg/ml puromycin for 5 days. Before functional testing, transduced cell pools were FACS sorted based on GFP fluorescence to isolate high expressing cell line pools and single cell clones.
# (§1) HEK293, HCT116 or HT29 cells stably expressing the PRSIM-based kill switch fusion protein (SEQ ID NO: 223) or HEK293 cells stably expressing the PRSIM kill switch S196A mutant fusion protein (SEQ ID NO: 230) were plated onto collagen-coated 96-well plates and 24 h later treated with 100 nM simeprevir. Phase contrast images were acquired at various timepoints using 10× or 20× objectives on an Incucyte Zoom (EssenBioscience).
# S139A HCV NS3/4A PR = S139A HCV NS3/4A PR (Hepatitis C virus subtype 1a, UniProt A8DG50, A1066T/I1043Q/I1044E/L1039E/L1040E/L1047Q/S1165A, form not given); assay: Isothermal calorimetry; assay type: binding; details: ITC, 37° C.
# Procedure: (§2) Isothermal calorimetry (ITC) was carried out using the Auto-ITC 200 (Malvern), with a preliminary injection of 0.4 μl followed by 19 injections of 2 μl each, at 120 second intervals. Rotation of the solution was set to 750 rpm and temperature 37° C. […] The WT was run once; the S139A mutant was run in duplicate. The data were analysed with the ITC-PEAQ software (Malvern) using a one-site binding model and reference subtraction point-by-point.
# WT HCV NS3/4A PR = WT HCV NS3/4A PR (Hepatitis C virus subtype 1a, UniProt A8DG50, A1066T/I1043Q/I1044E/L1039E/L1040E/L1047Q, form not given); assay: Isothermal calorimetry; assay type: binding; details: ITC, 37° C.
# Procedure: as §2
# [3] = tested on: endogenous IL-2 gene in HEK293 cells; assay: Endogenous gene regulation assay (CRISPRa); assay type: cell-based, human; details: 300 nM simeprevir, split dCas9/AD cassette and IL-2 targeted gRNA
# Description: CRISPRa relies on the use of a dead Cas9 enzyme (dCas9) with no endonuclease activity to bind to a target site within the promoter region of an endogenous gene via a single guide RNA. Upon recruitment of a transcriptional activator, transcription of the endogenous gene is initiated.
# The dCas9 and AD are separately fused to the two protein components of the CID such that, only in the presence of the small molecule inducer, the AD is brought into close proximity to dCas9, allowing recruitment of the transcription machinery to the promoter region of an endogenous gene via a single guide RNA (sgRNA). In this example, an activation plasmid was generated consisting of two functional units; an AD fused to the HCV NS3/4A PR (S139A) (SEQ ID 226) and a dCas9 fused to three tandem copies of PRSIM-23 (SEQ ID 228). The sequences are preceded by a CMV promoter and separated by an internal ribosome entry site (IRES). A gRNA plasmid was generated by golden gate assembly, utilising BsaI. […]
# Transcriptional regulation assays were performed in adherent HEK293 cells cultured in 96-well plates. Cells enzymatically dissociated from a tissue culture flask were counted and plated at 2.5×10^4 cells/well. […] 72 hours post-treatment (day 6), the cell supernatant was harvested and IL-2 quantified using a V-PLEX Human IL-2 Kit (Meso Scale Discovery), as per the manufacturer's protocol.
# [4] = tested on: HT29 cells stably expressing the PRSIM-based kill switch; assay: Kill switch cell viability (phase contrast); assay type: cell-based, human; details: 100 nM simeprevir, wt kill switch
# Procedure: (§3) HCT116 and HT29 transduced cells were generated following the same protocol with exception of using McCoy's 5A medium+10% foetal bovine serum as growth medium, supplemented with 2 μg/ml puromycin for selection of transduced cells.
# as §1
# [5] = tested on: HCT116 cells stably expressing the PRSIM-based kill switch; assay: Kill switch cell viability (phase contrast); assay type: cell-based, human; details: 100 nM simeprevir, wt kill switch
# Procedure: as §3, §1
structure (smiles),measurement,setting,value
COc1ccc2c(O[C@@H]3C[C@H]4C(=O)N[C@]5(C(=O)NS(=O)(=O)C6CC6)C[C@H]5/C=C\CCCCN(C)C(=O)[C@@H]4C3)cc(-c3nc(C(C)C)cs3)nc2c1C [simeprevir],EC50,[1],4.53 nM
same,EC50,[1]; listed as Simeprevir,4.03 nM
same,cell killing,[2]; kill switch S196A,rapid cell killing in a timeframe comparable to the wt kill switch
same,cell death,[2]; wt kill switch,rapid cell death
same,stoichiometry,S139A HCV NS3/4A PR,~0.6 Sim/NS3 binding sites
same,ΔH,S139A HCV NS3/4A PR,~22 kcal/mol
same,stoichiometry,WT HCV NS3/4A PR,~0.6 Sim/NS3 binding sites
same,ΔH,WT HCV NS3/4A PR,~22 kcal/mol
same,IL-2 secretion,[3],resulted in secretion of IL-2
same,cell death,[4],rapid cell death
same,cell death,[5],rapid cell death
